Assay results taken from patent US8188126B2, “Imidazolic compounds and use thereof as alpha-2 adrenergic receptors” (Pierre Fabre Medicament, priority 2002, dated 2012).

Legend:
human alpha-2A receptor = molecular target: T1, human alpha-2A receptor (Homo sapiens, UniProt P08913); assay: Bonds with alpha-2 adrenergic receptors ([3H]RX 821002 binding, C6 cell membranes); conditions: 2 nM [3H]RX 821002, C6 cell membranes expressing human alpha-2A receptor, 30 min at 25° C.; read-out: Affinity (pKi) Alpha-2A (converted)
T1 construct: expressed in transfected cells; host or cells: C6 cells (rat glioma, by own knowledge) continuously expressing the human receptor; membranes
T1 sequence (P08913 1-465): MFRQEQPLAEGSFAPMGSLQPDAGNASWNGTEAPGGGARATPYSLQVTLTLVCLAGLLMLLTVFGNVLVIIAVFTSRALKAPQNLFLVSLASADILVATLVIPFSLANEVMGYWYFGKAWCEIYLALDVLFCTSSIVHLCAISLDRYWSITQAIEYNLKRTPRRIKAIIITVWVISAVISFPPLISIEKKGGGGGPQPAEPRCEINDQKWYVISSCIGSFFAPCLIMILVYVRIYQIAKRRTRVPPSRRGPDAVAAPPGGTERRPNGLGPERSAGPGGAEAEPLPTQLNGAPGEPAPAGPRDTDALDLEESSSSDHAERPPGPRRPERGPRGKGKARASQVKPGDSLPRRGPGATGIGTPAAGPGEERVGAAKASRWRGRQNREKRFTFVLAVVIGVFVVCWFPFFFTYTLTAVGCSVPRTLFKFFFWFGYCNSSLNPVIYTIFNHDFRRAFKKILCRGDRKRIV
Experimental: Bonds with Alpha-2 Adrenergic Receptors
The C6 cell membranes continuously expressing the human alpha-2A receptor are prepared in Tris-HCl (pH=7.6). The bond tests are conducted with 2 nM [3H]RX 821002. The incubation medium consists of 0.4 ml of cell membranes (10 μg of proteins), 0.05 ml of radioligand and 0.05 ml of test product or phentolamine (10 μM) to determine the non-specific bond. The reaction is stopped after 30 minutes of incubation at 25° C. by adding 3 ml of Tris-HCl, 50 mM (pH=7.6), cold, followed by filtration on Whatman filters, GF/B using a Brandel. The Ki values are calculated according to the equation Ki=IC50/(1+C/Kd) where C is the concentration and Kd the dissociation constant, pKi=−log Ki. Under these conditions, the compounds according to the invention appear to have a strong affinity for human alpha-2A adrenergic subtype receptors.

[1] = molecular target: T2, human alpha-2A adrenergic receptors (Homo sapiens, UniProt P08913); assay: Measurement of alpha-2 adrenergic receptor activation (GTPγS response on membrane preparations); assay type: biochemical; conditions: expressed with reference to (−)-adrenaline (maximum stimulation = +100), read-out: Intrinsic activity % stimulated
T2 construct: expressed in transfected cells; host or cells: membrane preparations
T2 sequence (P08913 1-465): T1 sequence (P08913 1-465)
Experimental: Measurement of Alpha-2 Adrenergic Receptor Activation
The GTPγS responses are produced on membrane preparations in 20 mM HEPES (pH=7.4) with 30 [mu]M of GDP, 100 mM of NaCl, 3 mM of MgCl2 and 0.2 mM of ascorbic acid. The maximum GTPγS stimulation is determined in the presence of […] of (−)-adrenaline and calculated with respect to the basal GTPγS response. The results are expressed with reference to adrenaline or RX 811059. Under these conditions, the compounds according to the invention are distinguished from the majority of the compounds according to the prior art in that they behave more like reverse agonists on human alpha-2A adrenergic receptors (see table above).

[2] = test system: scopolamine-induced memory deficiency; assay: Scopolamine-induced memory deficiency test (passive avoidance); assay type: in vivo; conditions: rats
Excerpt: Scopolamine-Induced Memory Deficiency Test. Scopolamine has amnesiac properties in animals and humans. In this way, its administration to healthy humans induces certain symptoms similar to those observed in Alzheimer's disease. Therefore, the scopolamine-induced memory deficiency is used as an experimental pharmacological model of the memory disorders observed in the course of this condition. Scopolamine reduces acquisition, memorisation and recall capacities in a passive avoidance test in rats. It consists of measuring the hesitancy, after learning, shown by an animal to enter a dark compartment in which it receives a low-intensity electric shock. The administration of scopolamine does away with this hesitancy and the compounds studied inhibit the effect of scopolamine. The experimental protocol used is described in Psychopharmacol. 1992, 106, 26-30.

rats = assay: Morris water maze test (spatial memory, probe trial); assay type: in vivo; conditions: for Effect on spatial memory processes (in words): i.p. after training sessions of days 1 and 2; for Increase in spatial memory performance: probe trial on day 3 after two training days
Excerpt: Morris Water Maze—Basic Principles of the Test
In the animal test paradigm, rats are placed into a circular pool containing water and are required to find an escape platform just beneath the surface of the water and therefore invisible to the animal. The performances are dependent on the number of training days.
Morris Water Maze—Detailed Protocol
The water maze test was adapted from the original protocol of Morris (1981). The test apparatus consisted of a circular fibreglass tank (130 cm in diameter, 50 cm deep). The pool was filled to a height of 30 cm with water at room temperature (21-22° C.). The pool was divided into four virtual quadrants (Q1, Q2, Q3 and Q4) of equal surface area. A transparent escape platform made of Plexiglas (10 cm in diameter, 29 cm high) was placed in a fixed location in the tank, 1 cm below the water surface. […] Many extra-maze cues surrounded the maze and were available for the rats to use in locating the escape platform. On the training trials, the platform remained in a constant location in the centre of one quadrant (Q4) equidistant from the centre and the edge of the pool. Each rat received three trials/day for 1, 2, 3 or 4 days. Each training trial involved placing the rat into the pool facing the wall at one of the 3 quadrants Q1, Q2 and Q3. A different starting point was randomly used on each trial. The rats were allowed to swim freely until they found the escape platform. The latency to find the hidden platform was recorded and used as a measure of acquisition of the task. […] The intertrial interval was 20 sec during which the rat remained on the platform. Twenty hours after the last training trial, the platform was removed from the pool, the rats were allowed to swim for 60 sec in the pool and the time spent in the target quadrant Q4 (the quadrant in which the platform was during training) was recorded. The percent time spent in the previous training quadrant Q4 was used as an index of memory. The higher the percentage, the better the memory was considered to be (Yavich L., Sirviö J., Haapalinna A., Puumala T., Koivisto E., Heinonen E., Riekkinen P. Jr. (1996) The systemic administration of tacrine or selegeline facilitate spatial learning in aged Fisher 344 rats. J Neural Transm 103: 619-626).
Pharmacological Treatment and Statistical Analysis
Rats received two training days and were tested in a probe trial, without platform, on the third day. […] Results were expressed as the mean±standard error of the mean (SEM) of performance (latency to find the platform and percentage time spent in target quadrant) and were analysed by one-way analysis of variance, with drug treatment as the factor, followed by a 2-tailed Student t-test (GB-STAT, Friedman P. (1991) GB-STAT: computer aided statistics & graphics, Ver 3.0. Dynamic Microsystems, Inc., Silver Spring). In the probe trial, without platform, results were also compared to chance performance (25%) by a 1-sample Student t-test (GB-STAT, Friedman, 1991). Results obtained with compounds I-1 (Example 4), (−)-1-1 (Example 6), (+)-1-1 (Example 5) and 1-2 (Example 7): […]

C[C@@H]1[C@H]2c3ccccc3C3(CC3)[C@@]12c1c[nH]cn1 (relative stereo) [Compound 1-2, 4-(1-exo-methyl-6-spiro-1′-cyclopropane-1a,6-dihydro-1H-cyclopropa[a]inden-6a-yl)-1H-imidazole]
Ki (human alpha-2A receptor): 7.94 nM | Emax [1]: 7% | Scopolamine memory deficiency % aplitude of effect ([2]; dose 0.63 mg/kg i.p.): +201% | Effect on spatial memory processes (in words) (rats): promnesic effect | Increase in spatial memory performance (rats; 2.54 mg/kg i.p. immediately after training sessions): 42%

c1ccc2c(c1)C1CC1(c1c[nH]cn1)C21CC1 (single isomer, unassigned; (+)) [(+)-1-1, (+)-4-(6-spiro-1′-cyclopropane-1a,6-dihydro-1H-cyclopropa[a]inden-6a-yl)-1H-imidazole]
Effect on spatial memory processes (in words) (rats): promnesic effect | Increase in spatial memory performance (rats; 0.16 mg/kg i.p. immediately after training sessions): 17%

c1ccc2c(c1)C1CC1(c1cnc[nH]1)C21CC1 (single isomer, unassigned; (-)) [(-)-1-1, (−)-4-(6-spiro-1′-cyclopropane-1a,6-dihydro-1H-cyclopropa[a]inden-6a-yl)-1H-imidazole]
Ki (human alpha-2A receptor): 2.51 nM | Emax [1]: 37% | Scopolamine memory deficiency % aplitude of effect ([2]; dose 2.5 mg/kg i.p.): +138% | Effect on spatial memory processes (in words) (rats): promnesic effect | Increase in spatial memory performance (rats; 0.63 and 2.5 mg/kg i.p. immediately after training sessions): up to 48%

c1ccc2c(c1)C1CC1(c1cnc[nH]1)C21CC1 (stereo not drawn) [Compound 1-1, 4-(6-spiro-1′-cyclopropane-1a,6-dihydro-1H-cyclopropa[a]inden-6a-yl)-1H-imidazole]
Ki (human alpha-2A receptor): 0.316 nM | Emax [1]: 14% | Scopolamine memory deficiency % aplitude of effect ([2]; dose 2.5 mg/kg i.p.): +122% | Effect on spatial memory processes (in words) (rats): promnesic effect | Increase in spatial memory performance (rats; 2.5 mg/kg i.p. immediately after training sessions): 46%

Fc1ccc2c(c1)C1(CC1)C1(c3c[nH]cn3)CC21 (stereo not drawn) [Compound 1-5, 4-(4-fluoro-6-spiro-t-cyclopropane-1a,6-dihydro-1H-cyclopropa[a]inden-6a-yl)-1H-imidazole]
Ki (human alpha-2A receptor): 0.316 nM | Emax [1]: -10% | Scopolamine memory deficiency % aplitude of effect ([2]; dose 0.63 mg/kg i.p.): +241%

COc1cc2c(cc1OC)C(=O)C(CC1CCN(Cc3ccccc3)CC1)C2 (stereo not drawn) [Donepezil, reference compound]
Scopolamine memory deficiency % aplitude of effect ([2]; dose 0.16 mg/kg i.p.): +67%
